From US10786522B2, “Compositions that include anthocyanidins and methods of use” (Maqui NewLife S.A., priority 2009, dated 2020)

Tests used:
NF-κB = NF-κB luciferase reporter assay in HL-60 cells; type: cell-based, Human; settings: positive control, concentration not given
Procedure: We examined the effect of anthocyanidins on NF-κB activation using a luciferase reporter assay in HL-60 cells (Human promyelocytic leukemia cells). HL-60 cells in IMDM medium were transfected with a reporter vector with an NF-kB consensus sequence located in the luciferase promoter for 24 h at 37° C., then were incubated with delphinidin-rich anthocyanidins diluted 1:500000, 1:50000, and 1:5000. PMA was used as positive control. Luciferase activity was measured with a Dual luciferase assay kit (Promega) according to the supplier's instructions. A vector that constitutively expressed renilla luciferase was used to standardize the assay.

PPAR-γ = assay: PPAR-γ-Luc reporter assay in HL-60 cells; type: cell-based, Human; settings: control substances, 12 h, concentration not given
Procedure: We examined the effect of delphindin-rich anthocyanidins on PPAR-γ activation. HL-60 cells in IMDM medium were transfected with the reporter vectors PPAR-γ-Luc (5 μg) (Panomics) and TK-RL (1 μg) (Promega) using Fugene 6 reagent (Roche), and cultured for 24 hr. Then, the cells were incubated for 12 h in 0.175, 1.75, or 17.5 μg/ml of delphindin-rich anthocyanidins, phorbol myristate acetate (PMA), 15-deoxi-d 12,14-prostaglandin J2 (PGj2), or tumor necrosis factor alpha (TNFα) as controls. Luciferase activity was measured using the Dual-Luciferase Reporter Assay kit (DLR) from Promega in a luminometer (Luminoskan).

CCCCCCCCCCCCCC(=O)O[C@@H]1[C@@H](C)[C@@]2(O)[C@@H](C=C(CO)C[C@]3(O)C(=O)C(C)=C[C@@H]23)[C@@H]2C(C)(C)[C@]12OC(C)=O [PMA, phorbol myristate acetate]
Average percentage activity of control [pNF-κB/pRL-luc] (NF-κB): 50%
Average percentage activity of control [PPAR-γ-Luc/TK-RL] ± SD (PPAR-γ): 527.5 ± 536.3%
